Reference: patent US12336981B2, “Compounds and compositions for the inhibition of NAMPT” (Valo Health, Inc., priority 2010, dated 2025)
pIC50: −log10 of the molar value. Several values for one entry are separate records, joined by “and”; a condition that tells them apart may be missing. Identical values can stand only once. Like-named read-outs stand apart in the source and are kept apart here.

Tests used:
[1] = target: T1, NAMPT (Homo sapiens, UniProt P43490); test: Biochemical inhibition assay: NAMPT enzymatic reaction, NMN quantified by mass spectrometry; details: NAMPT enzymatic assay; read-out: Biochem IC50
T1 construct: His tag; host or cells: E. coli
T1 sequence (P43490 whole entry): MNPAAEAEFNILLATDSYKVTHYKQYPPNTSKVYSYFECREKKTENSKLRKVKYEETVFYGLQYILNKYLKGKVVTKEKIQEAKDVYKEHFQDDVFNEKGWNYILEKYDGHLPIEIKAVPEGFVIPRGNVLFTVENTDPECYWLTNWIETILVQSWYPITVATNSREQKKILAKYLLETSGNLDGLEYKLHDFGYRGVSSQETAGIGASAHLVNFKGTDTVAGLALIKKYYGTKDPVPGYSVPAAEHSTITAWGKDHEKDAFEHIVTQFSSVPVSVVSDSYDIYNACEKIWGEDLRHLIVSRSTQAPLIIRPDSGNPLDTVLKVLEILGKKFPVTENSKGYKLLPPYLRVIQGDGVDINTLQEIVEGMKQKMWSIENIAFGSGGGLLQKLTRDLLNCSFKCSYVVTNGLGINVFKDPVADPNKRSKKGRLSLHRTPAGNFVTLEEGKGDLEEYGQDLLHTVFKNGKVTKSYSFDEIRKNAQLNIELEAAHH
Outline: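 Inhibition of E. coli-expressed His-tagged human NAMPT, measured as NMN formation by mass spectrometry after a 30 min room-temperature reaction containing 1 μM NAM, 100 μM PRPP and 2.5 mM ATP.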

[2] = system: A2780 cells; test: In-vitro cell proliferation assay (SRB), A2780 cells; type: cell-based; details: A2780 cells, 72 hours, SRB, read-out: A2780 IC50
Outline: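 Growth inhibition was derived from background-corrected SRB absorbance (570 nm), measured on cells fixed in 6% TCA after three days of compound treatment under 5% CO2 at 37° C.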

| SMILES | pIC50 [1] | pIC50 [2] | pIC50 ([2]; Homo sapiens, A2780, 72 h) |
| --- | --- | --- | --- |
| O=C(NCc1ccc(S(=O)(=O)c2cccc(N3CCCCC3)c2)cc1)c1cnc2nccn2c1 | 8.29 and 8.92 | 8.24 | 7.94 |
| O=C(NCc1ccc(S(=O)(=O)c2cccc(N3CCCCC3)c2)cc1)c1cc2ccncc2s1 | 7.78 | – | 7.87 |
| O=C(NCc1ccc(S(=O)(=O)c2cccc(CN3CCCCC3)c2)cc1)c1cnc2nccn2c1 | 8.72 | – | 7.51 |
| O=C(NCc1ccc(S(=O)(=O)c2cccc(CN3CCCCC3)c2)cc1)c1ccc2nccn2c1 | 8.04 | – | 8.46 |
| CC(C)c1cccc(S(=O)(=O)c2ccc(CNC(=O)c3cc4ccncc4o3)cc2)c1 | 8.35 | – | 8.15 |
| CC(C)c1cccc(S(=O)(=O)c2ccc(CNC(=O)c3cnc4nccn4c3)cc2)c1 | 8.54 | – | 8.28 |
| CC(C)c1cccc(S(=O)(=O)c2ccc(CNC(=O)c3cnc4[nH]ncc4c3)cc2)c1 | 7.86 | – | 8.20 |
| CC(C)Oc1cccc(S(=O)(=O)c2ccc(CNC(=O)c3cnc4[nH]ncc4c3)cc2)c1 | 7.34 | – | 7.61 |
| CC(C)Oc1cccc(S(=O)(=O)c2ccc(CNC(=O)c3cc4ccncc4o3)cc2)c1 | 7.90 | – | 7.84 |
| CC(C)Oc1cccc(S(=O)(=O)c2ccc(CNC(=O)c3cnc4nccn4c3)cc2)c1 | 8.64 | – | 7.98 |
| CCCS(=O)(=O)Nc1cccc(S(=O)(=O)c2ccc(CNC(=O)c3cnc4nccn4c3)cc2)c1 | 8.64 | – | 7.06 |
| O=C(NCc1ccc(S(=O)(=O)c2cccc(-c3ncccn3)c2)cc1)c1ccc2nccn2c1 | 7.66 | – | 8.42 |
| O=C(NCc1ccc(S(=O)(=O)c2cccc(N3CCCC3)c2)cc1)c1cnc2[nH]ncc2c1 | 7.77 | – | 7.89 |
| O=C(NCc1ccc(S(=O)(=O)c2cccc(N3CCCC3)c2)cc1)c1cc2ccncc2o1 | 8.09 | – | 8.13 |
| O=C(NCc1ccc(S(=O)(=O)c2cccc(N3CCCC3)c2)cc1)c1cc2cnccc2[nH]1 | 7.87 | – | 8.55 |
| O=C(NCc1ccc(S(=O)(=O)c2cccc(N3CCCC3)c2)cc1)c1cnc2nccn2c1 | 8.60 | – | 8.39 |
| O=C(NCc1ccc(S(=O)(=O)c2cccc(N3CCCC3)c2)cc1)c1cc2ccncc2s1 | 8.72 | – | 8.60 |
| O=C(NCc1ccc(S(=O)(=O)c2cccc(N3CCCC3)c2)cc1)c1ccc2nccn2c1 | 7.87 | – | 8.80 |
| O=C(NCc1ccc(S(=O)(=O)c2cccc(N3CCCC3)c2)cc1)c1ccc2ncsc2c1 | 8.06 | – | 5.00 to 6.00 |
| O=C(NCc1ccc(S(=O)(=O)c2cccc(OC(F)(F)F)c2)cc1)c1cnc2nccn2c1 | 8.60 | – | 8.57 |
| O=C(NCc1ccc(S(=O)(=O)c2cccc(OC(F)(F)F)c2)cc1)c1cnc2[nH]ncc2c1 | 7.69 | – | 8.15 |
| O=C(NCc1ccc(S(=O)(=O)c2cccc(OC(F)(F)F)c2)cc1)c1cc2ccncc2o1 | 8.47 | – | 8.17 |
| O=C(NCc1ccc(S(=O)(=O)c2cccc(C(F)(F)F)c2)cc1)c1ccc2ncsc2c1 | 8.22 | – | 6.26 |
| O=C(NCc1ccc(S(=O)(=O)c2cccc(C(F)(F)F)c2)cc1)c1cnc2nccn2c1 | 8.57 | – | 8.52 |

| SMILES | pIC50 [1] | pIC50 [2] | pIC50 ([2]; Homo sapiens, A2780, 72 h) |
| --- | --- | --- | --- |
| O=C(NCc1ccc(S(=O)(=O)c2cccc(C(F)(F)F)c2)cc1)c1cc2ccncc2o1 | 8.27 | – | 8.32 |
| O=C(NCc1ccc(S(=O)(=O)c2ccc(C(F)(F)F)c(Cl)c2)cc1)c1ccc2nccn2c1 | 8.54 | – | 8.92 |
| O=C(NCc1ccc(S(=O)(=O)c2ccc(C(F)(F)F)c(Cl)c2)cc1)c1cc2cnccc2[nH]1 | 7.88 | – | 8.11 |
| O=C(NCc1ccc(S(=O)(=O)c2ccc(C(F)(F)F)c(Cl)c2)cc1)c1cc2ccncc2s1 | 8.52 | – | 8.64 |
| O=C(NCc1ccc(S(=O)(=O)c2ccc(C(F)(F)F)c(Cl)c2)cc1)c1cc2ccncc2o1 | 8.10 | – | 8.21 |
| O=C(NCc1ccc(S(=O)(=O)c2ccc(C(F)(F)F)c(Cl)c2)cc1)c1cnc2nccn2c1 | 8.55 | – | 8.74 |
| CCN(CC)C(=O)c1cc(Cl)cc(S(=O)(=O)c2ccc(CNC(=O)c3cc4ccncc4s3)cc2)c1 | 8.64 | – | 9.10 |
| CCN(CC)C(=O)c1cc(Cl)cc(S(=O)(=O)c2ccc(CNC(=O)c3cnc4nccn4c3)cc2)c1 | 9.05 | – | 8.92 |
| O=C(NCc1ccc(S(=O)(=O)c2cc(Cl)cc(CO)c2)cc1)c1ccc2nccn2c1 | 8.24 | – | 8.85 |
| O=C(NCc1ccc(S(=O)(=O)c2cc(Cl)cc(CO)c2)cc1)c1cnc2nccn2c1 | 8.47 | – | 7.94 |
| O=C(NCc1ccc(S(=O)(=O)c2cc(Cl)cc(C(F)(F)F)c2)cc1)c1cnc2nccn2c1 | 8.36 | – | 9.40 |
| O=C(NCc1ccc(S(=O)(=O)c2ccc(-n3cccn3)c(F)c2)cc1)c1cc2ccncc2o1 | 7.76 | – | 8.30 |
| O=C(NCc1ccc(S(=O)(=O)c2ccc(-n3cccn3)c(F)c2)cc1)c1cnc2[nH]ncc2c1 | 7.88 | – | 8.48 |
| O=C(NCc1ccc(S(=O)(=O)c2ccc(OCC(F)(F)F)c(F)c2)cc1)c1cc2ccncc2s1 | 8.34 | – | 7.63 |
| O=C(NCc1ccc(S(=O)(=O)c2ccc(OCC(F)(F)F)c(F)c2)cc1)c1ccc2nccn2c1 | 7.82 | – | 8.10 |
| O=C(NCc1ccc(S(=O)(=O)c2ccc(OCC(F)(F)F)c(F)c2)cc1)c1cnc2nccn2c1 | 8.36 | – | 8.14 |
| O=C(NCc1ccc(S(=O)(=O)c2ccc(OCC(F)(F)F)c(F)c2)cc1)c1cc2ccncc2o1 | 8.16 | – | 7.62 |
| CSc1ccc(S(=O)(=O)c2ccc(CNC(=O)c3cc4ccncc4s3)cc2)cc1F | 8.66 | – | 8.70 |
| CSc1ccc(S(=O)(=O)c2ccc(CNC(=O)c3ccc4nccn4c3)cc2)cc1F | 8.25 | – | 8.57 |
| CSc1ccc(S(=O)(=O)c2ccc(CNC(=O)c3cc4ccncc4o3)cc2)cc1F | 7.91 | – | 7.95 |
| O=C(NCc1ccc(S(=O)(=O)c2ccc(OC(F)(F)F)c(F)c2)cc1)c1cnc2nccn2c1 | 8.40 | – | 7.93 |
| O=C(NCc1ccc(S(=O)(=O)c2ccc(OC(F)(F)F)c(F)c2)cc1)c1ccc2nccn2c1 | 8.08 | – | 8.20 |
| O=C(NCc1ccc(S(=O)(=O)c2ccc(OC(F)(F)F)c(F)c2)cc1)c1cc2ccncc2o1 | 8.00 | – | 7.81 |
| O=C(NCc1ccc(S(=O)(=O)c2ccc(OC(F)(F)F)c(F)c2)cc1)c1cc2ccncc2s1 | 7.94 | – | 7.94 |

| SMILES | pIC50 [1] | pIC50 [2] | pIC50 ([2]; Homo sapiens, A2780, 72 h) |
| --- | --- | --- | --- |
| O=C(NCc1ccc(S(=O)(=O)c2ccc(C(F)(F)F)c(F)c2)cc1)c1cc2ccncc2o1 | 8.04 | – | 7.86 |
| O=C(NCc1ccc(S(=O)(=O)c2ccc(C(F)(F)F)c(F)c2)cc1)c1cnc2nccn2c1 | 8.39 | – | 8.16 |
| O=C(NCc1ccc(S(=O)(=O)c2ccc(C(F)(F)F)c(F)c2)cc1)c1ccc2nccn2c1 | 7.40 | – | 8.36 |
| O=C(NCc1ccc(S(=O)(=O)c2ccc(C(F)(F)F)c(F)c2)cc1)c1cc2ccncc2s1 | 8.06 | – | 8.14 |
| CC(C)COc1cc(F)cc(S(=O)(=O)c2ccc(CNC(=O)c3cnc4nccn4c3)cc2)c1 | 8.51 | – | 8.47 |
| CC(C)COc1cc(F)cc(S(=O)(=O)c2ccc(CNC(=O)c3ccc4nccn4c3)cc2)c1 | 7.95 | – | 8.52 |
| CC(C)COc1cc(F)cc(S(=O)(=O)c2ccc(CNC(=O)c3cc4ccncc4s3)cc2)c1 | 8.32 | – | 8.12 |
| CC(C)COc1cc(F)cc(S(=O)(=O)c2ccc(CNC(=O)c3cc4cnccc4[nH]3)cc2)c1 | 7.88 | – | 8.15 |
| O=C(NCc1ccc(S(=O)(=O)c2cc(F)cc(OCC(F)(F)F)c2)cc1)c1cc2cnccc2[nH]1 | 8.25 | – | 8.72 |
| O=C(NCc1ccc(S(=O)(=O)c2cc(F)cc(OCC(F)(F)F)c2)cc1)c1cnc2nccn2c1 | 8.72 | – | 8.82 |
| O=C(NCc1ccc(S(=O)(=O)c2cc(F)cc(N3CCOCC3)c2)cc1)c1cc2cnccc2[nH]1 | 8.40 | – | 9.10 |
| O=C(NCc1ccc(S(=O)(=O)c2cc(F)cc(N3CCOCC3)c2)cc1)c1ccc2nccn2c1 | 8.52 | – | 9.22 |
| O=C(NCc1ccc(S(=O)(=O)c2cc(F)cc(N3CCCC3)c2)cc1)c1cnc2nccn2c1 | 8.51 | – | 8.70 |
| O=C(NCc1ccc(S(=O)(=O)c2cc(F)cc(N3CCCC3)c2)cc1)c1cc2ccncc2s1 | 8.92 | – | 8.57 |
| O=C(NCc1ccc(S(=O)(=O)c2cc(F)cc(N3CCCC3)c2)cc1)c1ccc2nccn2c1 | 8.41 | – | 8.66 |
| O=C(NCc1ccc(S(=O)(=O)c2cc(F)cc(C(F)(F)F)c2)cc1)c1cc2ccncc2o1 | 8.13 | – | 8.30 |
| O=C(NCc1ccc(S(=O)(=O)c2cc(F)cc(C(F)(F)F)c2)cc1)c1cc2cnccc2[nH]1 | 7.58 | – | 8.44 |
| O=C(NCc1ccc(S(=O)(=O)c2cc(F)cc(C(F)(F)F)c2)cc1)c1cnc2nccn2c1 | 8.23 | – | 8.96 |
| N#CC1(c2ccc(S(=O)(=O)c3ccc(CNC(=O)c4ccc5nccn5c4)cc3)cc2)CCCC1 | 7.97 | – | 8.52 |
| N#CC1(c2ccc(S(=O)(=O)c3ccc(CNC(=O)c4cc5cnccc5[nH]4)cc3)cc2)CCCC1 | 7.22 | – | 7.72 |
| N#CC1(c2ccc(S(=O)(=O)c3ccc(CNC(=O)c4cc5ccncc5o4)cc3)cc2)CCCC1 | 8.10 | – | 8.22 |
| O=C(NCc1ccc(S(=O)(=O)c2ccc(-n3ccnc3)cc2)cc1)c1cnc2nccn2c1 | > 9.19 | – | 7.91 |
